Data published in patent publication US20250302832A1, “PYRAZINE DERIVATIVES AND USES THEREOF” (FOGHORN THERAPEUTICS INC., priority 2022, published 2025).

Experiments:
HiBit-BRM fusion protein = target: T1, HiBit-BRM fusion protein (Homo sapiens, UniProt P51531); experiment: HiBiT-BRM cell-based degradation assay (Nano-Glo HiBiT lytic detection, 24 h); conditions: HeLa cell line expressing HiBiT-BRM; for DC50: read-out: BRM HiBit Degradation IC50
T1 construct: expressed in transfected cells
Procedure, shortened: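 Stable HeLa HiBiT-BRM cells treated 24 h with compounds (10-point 3-fold dilutions, 30 μM final top dose, duplicate). HiBiT levels read by Nano-Glo lytic luminescence; % degradation normalised to DMSO (high control) and 2 μM reference BRM/BRG1 degrader (low control).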

[1] = target: T2, HiBit-BRG1 fusion protein (Homo sapiens, UniProt P51532); experiment: HiBiT-BRG1 cell-based degradation assay (Nano-Glo HiBiT lytic detection, 24 h); conditions: HeLa cell line expressing HiBit-BRG1 and LgBit; for Dmax: read-out: BRG1 HiBit Degradation Maximum (%); for DC50: read-out: BRMG1 HiBit Degradation IC50
T2 construct: expressed in transfected cells
T2 sequence (P51532 whole entry, the tested form may be a part): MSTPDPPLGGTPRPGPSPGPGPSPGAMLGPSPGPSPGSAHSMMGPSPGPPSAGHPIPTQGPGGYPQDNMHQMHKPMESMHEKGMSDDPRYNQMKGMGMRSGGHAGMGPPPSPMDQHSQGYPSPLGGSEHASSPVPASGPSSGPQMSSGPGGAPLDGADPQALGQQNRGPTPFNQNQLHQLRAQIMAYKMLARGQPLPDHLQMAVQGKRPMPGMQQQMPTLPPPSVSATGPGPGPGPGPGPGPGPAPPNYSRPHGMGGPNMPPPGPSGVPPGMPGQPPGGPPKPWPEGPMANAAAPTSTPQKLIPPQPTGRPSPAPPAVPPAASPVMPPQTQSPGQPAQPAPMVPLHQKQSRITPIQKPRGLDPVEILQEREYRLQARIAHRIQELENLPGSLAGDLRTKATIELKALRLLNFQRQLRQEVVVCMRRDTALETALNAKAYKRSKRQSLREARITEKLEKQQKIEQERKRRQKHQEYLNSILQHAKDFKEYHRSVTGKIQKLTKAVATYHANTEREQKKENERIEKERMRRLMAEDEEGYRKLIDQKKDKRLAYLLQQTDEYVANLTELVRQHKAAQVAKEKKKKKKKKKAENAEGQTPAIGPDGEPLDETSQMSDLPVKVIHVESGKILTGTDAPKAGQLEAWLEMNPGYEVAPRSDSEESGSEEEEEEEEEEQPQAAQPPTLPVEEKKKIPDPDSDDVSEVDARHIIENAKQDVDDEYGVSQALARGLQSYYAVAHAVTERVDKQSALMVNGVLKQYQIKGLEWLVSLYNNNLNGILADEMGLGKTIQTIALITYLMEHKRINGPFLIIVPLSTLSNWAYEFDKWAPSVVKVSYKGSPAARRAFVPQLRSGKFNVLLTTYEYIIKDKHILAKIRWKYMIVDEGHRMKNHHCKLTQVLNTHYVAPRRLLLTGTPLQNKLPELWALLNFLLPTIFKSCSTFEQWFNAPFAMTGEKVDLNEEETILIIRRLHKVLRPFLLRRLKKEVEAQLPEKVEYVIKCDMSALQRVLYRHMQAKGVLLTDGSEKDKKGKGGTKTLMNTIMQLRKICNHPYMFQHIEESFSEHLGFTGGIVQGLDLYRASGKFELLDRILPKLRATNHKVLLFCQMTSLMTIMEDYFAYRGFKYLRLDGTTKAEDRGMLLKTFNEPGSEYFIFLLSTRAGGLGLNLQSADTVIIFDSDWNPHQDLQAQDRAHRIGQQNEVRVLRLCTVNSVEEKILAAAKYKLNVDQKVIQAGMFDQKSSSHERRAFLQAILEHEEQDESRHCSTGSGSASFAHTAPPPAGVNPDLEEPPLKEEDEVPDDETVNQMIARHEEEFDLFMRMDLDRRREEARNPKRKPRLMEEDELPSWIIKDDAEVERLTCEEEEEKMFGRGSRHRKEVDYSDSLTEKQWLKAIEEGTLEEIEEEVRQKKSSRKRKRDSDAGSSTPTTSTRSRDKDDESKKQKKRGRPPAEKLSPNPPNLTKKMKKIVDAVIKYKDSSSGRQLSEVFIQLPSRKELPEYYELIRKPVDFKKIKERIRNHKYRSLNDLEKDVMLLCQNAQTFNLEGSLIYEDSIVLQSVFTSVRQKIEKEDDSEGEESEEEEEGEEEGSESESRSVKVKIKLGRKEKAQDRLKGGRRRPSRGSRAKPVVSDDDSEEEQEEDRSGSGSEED
Procedure, shortened: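 HeLa cells stably expressing HiBiT-BRG1 and LgBiT, 5000 per well, compound-treated 24 h, equilibrated 15 min at room temperature, then lysed with LgBiT-containing Nano-Glo HiBiT lytic reagent and luminescence read. % degradation normalised between DMSO (high control) and 2 μM reference BRM/BRG1 degrader (low control).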

T1 sequence (P51531 whole entry, the tested form may be a part): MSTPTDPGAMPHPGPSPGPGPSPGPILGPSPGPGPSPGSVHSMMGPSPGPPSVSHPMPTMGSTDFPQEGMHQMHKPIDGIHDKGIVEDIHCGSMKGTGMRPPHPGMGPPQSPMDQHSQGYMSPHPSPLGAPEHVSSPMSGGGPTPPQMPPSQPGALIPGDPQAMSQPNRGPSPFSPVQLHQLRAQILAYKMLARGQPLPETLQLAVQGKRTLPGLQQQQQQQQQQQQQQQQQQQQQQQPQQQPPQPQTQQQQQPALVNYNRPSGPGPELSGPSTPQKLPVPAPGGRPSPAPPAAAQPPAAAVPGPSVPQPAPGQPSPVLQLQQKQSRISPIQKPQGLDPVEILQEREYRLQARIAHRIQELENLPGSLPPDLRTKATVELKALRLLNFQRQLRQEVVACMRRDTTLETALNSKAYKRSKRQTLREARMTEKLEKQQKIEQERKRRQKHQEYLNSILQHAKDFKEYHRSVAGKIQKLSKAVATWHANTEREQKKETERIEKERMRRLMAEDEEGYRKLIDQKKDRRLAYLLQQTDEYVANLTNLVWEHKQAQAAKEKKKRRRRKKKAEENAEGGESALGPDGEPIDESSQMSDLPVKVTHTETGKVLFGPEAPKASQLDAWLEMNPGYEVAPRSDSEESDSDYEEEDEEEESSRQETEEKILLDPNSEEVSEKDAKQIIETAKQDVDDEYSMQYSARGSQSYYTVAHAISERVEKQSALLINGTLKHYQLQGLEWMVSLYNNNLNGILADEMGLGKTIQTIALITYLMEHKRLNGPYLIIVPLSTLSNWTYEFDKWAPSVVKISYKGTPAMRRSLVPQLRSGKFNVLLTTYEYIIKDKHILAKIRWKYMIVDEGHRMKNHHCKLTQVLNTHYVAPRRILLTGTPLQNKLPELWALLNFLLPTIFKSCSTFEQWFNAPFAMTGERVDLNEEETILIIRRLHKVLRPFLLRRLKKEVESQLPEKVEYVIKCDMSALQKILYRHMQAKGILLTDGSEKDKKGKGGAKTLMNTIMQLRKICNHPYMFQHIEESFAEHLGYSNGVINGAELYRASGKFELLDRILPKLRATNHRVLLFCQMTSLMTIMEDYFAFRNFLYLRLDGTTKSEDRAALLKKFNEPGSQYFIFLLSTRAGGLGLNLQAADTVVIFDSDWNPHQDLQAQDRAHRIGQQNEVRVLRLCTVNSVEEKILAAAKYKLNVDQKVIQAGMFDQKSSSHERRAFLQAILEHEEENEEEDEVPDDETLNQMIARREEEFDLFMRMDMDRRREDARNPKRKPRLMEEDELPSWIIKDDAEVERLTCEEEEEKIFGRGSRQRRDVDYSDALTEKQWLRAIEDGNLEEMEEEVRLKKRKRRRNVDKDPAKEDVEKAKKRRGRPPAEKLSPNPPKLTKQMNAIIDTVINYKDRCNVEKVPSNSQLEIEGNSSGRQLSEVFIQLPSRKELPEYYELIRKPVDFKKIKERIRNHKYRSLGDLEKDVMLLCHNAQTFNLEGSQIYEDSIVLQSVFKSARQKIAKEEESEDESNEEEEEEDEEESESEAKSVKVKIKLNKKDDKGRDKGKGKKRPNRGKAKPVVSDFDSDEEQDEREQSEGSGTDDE

SMILES	BRM HiBit Degradation Maximum (%) (HiBit-BRM fusion protein)	DC50 (HiBit-BRM fusion protein) [µM]	Dmax [1] [%]	DC50 [1] [µM]
CNC(=O)[C@@H]1C[C@@H](O)CN1C(=O)[C@@H](c1cc(N2CC3(CC(c4cc5nnc(-c6ccccc6O)cc5n4C4CCC4)C3)C2)no1)C(C)C [Compound 61, (2S,4R)-1-((R)-2-(3-(6-(5-cyclobutyl-3-(2-hydroxyphenyl)-5H-pyrrolo[3,2-c]pyridazin-6-yl)-2-azaspiro[3.3]heptan-2-yl)isoxazol-5-yl)-3-methylbutanoyl)-4-hydroxy-N-methylpyrrolidine-2-carboxamide]	A (“A” indicates maximum degradation ≥75%)	> 0.01	< 50	–
Cc1ncsc1-c1ccc([C@H](C)NC(=O)[C@@H]2C[C@@H](O)CN2C(=O)[C@@H](c2cc(-c3cnc(N4CC5(CC(c6cc7nnc(-c8ccccc8O)cc7n6C6CCC6)C5)C4)nc3)no2)C(C)C)cc1 [Compound 62, (2S,4R)-1-((R)-2-(3-(2-(6-(5-cyclobutyl-3-(2-hydroxyphenyl)-5H-pyrrolo[3,2-c]pyridazin-6-yl)-2-azaspiro[3.3]heptan-2-yl)pyrimidin-5-yl)isoxazol-5-yl)-3-methylbutanoyl)-4-hydroxy-N-((S)-1-(4-(4-methylthiazol-5-yl)phenyl)ethyl)pyrrolidine-2-carboxamide]	A (“A” indicates maximum degradation ≥75%)	< 0.01	> 50	> 0.01
CC(C)[C@@H](C(=O)N1C[C@H](O)C[C@H]1C(=O)N[C@@H](C)c1ccc(F)cc1)c1cc(N2CC3(CC(c4cc5nnc(-c6ccccc6O)cc5n4C4CCC4)C3)C2)no1 [Compound 63, (2S,4R)-1-((R)-2-(3-(6-(5-cyclobutyl-3-(2-hydroxyphenyl)-5H-pyrrolo[3,2-c]pyridazin-6-yl)-2-azaspiro[3.3]heptan-2-yl)isoxazol-5-yl)-3-methylbutanoyl)-N-((S)-1-(4-fluorophenyl)ethyl)-4-hydroxypyrrolidine-2-carboxamide]	A (“A” indicates maximum degradation ≥75%)	> 0.01	< 50	–
Cc1ncsc1-c1ccc([C@H](C)NC(=O)[C@@H]2C[C@@H](O)CN2C(=O)[C@@H](c2cc(-c3cnc(N4CC5(CC(c6cc7nnc(-c8ccccc8O)cc7n6C67CC(C6)C7)C5)C4)nc3)no2)C(C)C)cc1 [Compound 64, (2S,4R)-1-((R)-2-(3-(2-(6-(5-(bicyclo[1.1.1]pentan-1-yl)-3-(2-hydroxyphenyl)-5H-pyrrolo[3,2-c]pyridazin-6-yl)-2-azaspiro[3.3]heptan-2-yl)pyrimidin-5-yl)isoxazol-5-yl)-3-methylbutanoyl)-4-hydroxy-N-((S)-1-(4-(4-methylthiazol-5-yl)phenyl)ethyl)pyrrolidine-2-carboxamide]	A (“A” indicates maximum degradation ≥75%)	< 0.01	< 50	–
Cc1ncsc1-c1ccc([C@H](C)NC(=O)[C@@H]2C[C@@H](O)CN2C(=O)[C@@H](c2cc(N3CC4(CC(c5cc6nnc(-c7ccccc7O)cc6n5C56CC(C5)C6)C4)C3)no2)C(C)C)cc1 [Compound 65, (2S,4R)-1-((R)-2-(3-(6-(5-(bicyclo[1.1.1]pentan-1-yl)-3-(2-hydroxyphenyl)-5H-pyrrolo[3,2-c]pyridazin-6-yl)-2-azaspiro[3.3]heptan-2-yl)isoxazol-5-yl)-3-methylbutanoyl)-4-hydroxy-N-((S)-1-(4-(4-methylthiazol-5-yl)phenyl)ethyl)pyrrolidine-2-carboxamide]	A (“A” indicates maximum degradation ≥75%)	< 0.01	< 50	–
Cc1ncsc1-c1ccc([C@H](C)NC(=O)[C@@H]2C[C@@H](O)CN2C(=O)[C@@H](c2cc(N3CC4(CC(c5cc6nnc(-c7ccccc7O)cc6n5C5(C)CC5)C4)C3)no2)C(C)C)cc1 [Compound 66, (2S,4R)-4-hydroxy-1-((R)-2-(3-(6-(3-(2-hydroxyphenyl)-5-(1-methylcyclopropyl)-5H-pyrrolo[3,2-c]pyridazin-6-yl)-2-azaspiro[3.3]heptan-2-yl)isoxazol-5-yl)-3-methylbutanoyl)-N-((S)-1-(4-(4-methylthiazol-5-yl)phenyl)ethyl)pyrrolidine-2-carboxamide]	A (“A” indicates maximum degradation ≥75%)	< 0.01	> 50	> 0.01
Cc1ncsc1-c1ccc([C@H](C)NC(=O)[C@@H]2C[C@@H](O)CN2C(=O)[C@@H](c2cc(N3CC4(CC(c5cc6nnc(-c7ccccc7O)cc6n5C)C4)C3)no2)C(C)C)cc1 [Compound 67, (2S,4R)-4-hydroxy-1-((R)-2-(3-(6-(3-(2-hydroxyphenyl)-5-methyl-5H-pyrrolo[3,2-c]pyridazin-6-yl)-2-azaspiro[3.3]heptan-2-yl)isoxazol-5-yl)-3-methylbutanoyl)-N-((S)-1-(4-(4-methylthiazol-5-yl)phenyl)ethyl)pyrrolidine-2-carboxamide]	A (“A” indicates maximum degradation ≥75%)	< 0.01	> 50	> 0.01
Cc1ncsc1-c1ccc([C@H](C)NC(=O)[C@@H]2C[C@@H](O)CN2C(=O)[C@@H](c2cc(N3CC4(CC(c5cc6nnc(-c7ccccc7O)cc6n5C5(CF)CC5)C4)C3)no2)C(C)C)cc1 [Compound 68, (2S,4R)-1-((R)-2-(3-(6-(5-(1-(fluoromethyl)cyclopropyl)-3-(2-hydroxyphenyl)-5H-pyrrolo[3,2-c]pyridazin-6-yl)-2-azaspiro[3.3]heptan-2-yl)isoxazol-5-yl)-3-methylbutanoyl)-4-hydroxy-N-((S)-1-(4-(4-methylthiazol-5-yl)phenyl)ethyl)pyrrolidine-2-carboxamide]	A (“A” indicates maximum degradation ≥75%)	< 0.01	< 50	–
Cc1ncsc1-c1ccc([C@H](C)NC(=O)[C@@H]2C[C@@H](O)CN2C(=O)[C@@H](c2cc(-c3cnc(N4CC[C@@H](c5cc6nnc(-c7cccc(Cl)c7O)cc6n5C5CC5)C4)nc3)no2)C(C)C)cc1 [Compound 69, (2S,4R)-1-((R)-2-(3-(2-((R)-3-(3-(3-chloro-2-hydroxyphenyl)-5-cyclopropyl-5H-pyrrolo[3,2-c]pyridazin-6-yl)pyrrolidin-1-yl)pyrimidin-5-yl)isoxazol-5-yl)-3-methylbutanoyl)-4-hydroxy-N-((S)-1-(4-(4-methylthiazol-5-yl)phenyl)ethyl)pyrrolidine-2-carboxamide]	A (“A” indicates maximum degradation ≥75%)	< 0.01	< 50	–
Cc1ncsc1-c1ccc([C@H](C)NC(=O)[C@@H]2C[C@@H](O)CN2C(=O)[C@@H](c2cc(-c3cnc(N4CC[C@@H](c5cc6nnc(-c7cc(F)cc(Cl)c7O)cc6n5C5CC5)C4)nc3)no2)C(C)C)cc1 [Compound 70, (2S,4R)-1-((R)-2-(3-(2-((R)-3-(3-(3-chloro-5-fluoro-2-hydroxyphenyl)-5-cyclopropyl-5H-pyrrolo[3,2-c]pyridazin-6-yl)pyrrolidin-1-yl)pyrimidin-5-yl)isoxazol-5-yl)-3-methylbutanoyl)-4-hydroxy-N-((S)-1-(4-(4-methylthiazol-5-yl)phenyl)ethyl)pyrrolidine-2-carboxamide]	A (“A” indicates maximum degradation ≥75%)	< 0.01	< 50	–
Cc1ncsc1-c1ccc([C@H](C)NC(=O)[C@@H]2C[C@@H](O)CN2C(=O)[C@H](C(C)C)n2cc(-c3cnc(N4CC[C@@H](c5cc6nnc(-c7ccccc7O)cc6n5C5CC5)C4)nc3)nn2)cc1 [Compound 71, (2S,4R)-1-((S)-2-(4-(2-((R)-3-(5-cyclopropyl-3-(2-hydroxyphenyl)-5H-pyrrolo[3,2-c]pyridazin-6-yl)pyrrolidin-1-yl)pyrimidin-5-yl)-1H-1,2,3-triazol-1-yl)-3-methylbutanoyl)-4-hydroxy-N-((S)-1-(4-(4-methylthiazol-5-yl)phenyl)ethyl)pyrrolidine-2-carboxamide]	A (“A” indicates maximum degradation ≥75%)	< 0.01	> 75	< 0.01
Cc1ncsc1-c1ccc([C@H](C)NC(=O)[C@@H]2C[C@@H](O)CN2C(=O)[C@@H](C(C)C)n2cc(-c3cnc(N4CC[C@@H](c5cc6nnc(-c7ccccc7O)cc6n5C5CC5)C4)nc3)nn2)cc1 [Compound 72, (2S,4R)-1-((R)-2-(4-(2-((R)-3-(5-cyclopropyl-3-(2-hydroxyphenyl)-5H-pyrrolo[3,2-c]pyridazin-6-yl)pyrrolidin-1-yl)pyrimidin-5-yl)-1H-1,2,3-triazol-1-yl)-3-methylbutanoyl)-4-hydroxy-N-((S)-1-(4-(4-methylthiazol-5-yl)phenyl)ethyl)pyrrolidine-2-carboxamide]	A (“A” indicates maximum degradation ≥75%)	< 0.01	< 50	–
Cc1ncsc1-c1ccc([C@H](C)NC(=O)[C@@H]2C[C@@H](O)CN2C(=O)[C@@H](c2cc(-c3cnc(N4CC[C@H](c5cc6nnc(-c7cc(F)cc(Cl)c7O)cc6n5C5CC5)C4)nc3)no2)C(C)C)cc1 [Compound 73, (2S,4R)-1-((R)-2-(3-(2-((S)-3-(3-(3-chloro-5-fluoro-2-hydroxyphenyl)-5-cyclopropyl-5H-pyrrolo[3,2-c]pyridazin-6-yl)pyrrolidin-1-yl)pyrimidin-5-yl)isoxazol-5-yl)-3-methylbutanoyl)-4-hydroxy-N-((S)-1-(4-(4-methylthiazol-5-yl)phenyl)ethyl)pyrrolidine-2-carboxamide]	B (“B” indicates maximum degradation ≥50%)	> 0.01	> 50	> 0.01
